From patent publication US20020183332A1, “USE OF CYAMEMAZINE IN THE TREATMENT OF ABRUPT BENZODIAZEPHINE WITHDRAWAL” (priority 1999, published 2002)

Columns and labels:
[1] = system: benzodiazepine withdrawal syndrome; conditions: LADER et al. 1987, SCHWEIZER et al. 1998; cited from earlier work
alcohol uptake in rats = conditions: NAASILA et al. 1998; cited from earlier work
[2] = system: patients treated with benzodiazepines for 3 months or more and requiring benzodiazepine withdrawal; experiment: randomized double-blind clinical trial: abrupt benzodiazepine withdrawal with cyamemazine substitution versus gradual withdrawal with bromazepam; type: in vivo; conditions: for patients in whom the withdrawal is still a success: after 6 months; for patients in whom the treatment is successful: after 6 weeks of study, benzodiazepine withdrawal, 168 patients

## O=C1CC2(CCCC2)CC(=O)N1CCCCN1CCN(c2ncccn2)CC1 [buspirone]
[1]
  effect on the withdrawal syndrome: not shown any significant effect

## CC(CN(C)C)CN1c2ccccc2Sc2ccc(C#N)cc21 (stereo not shown) [cyamemazine]
Alcohol uptake in rats
  action on alcohol uptake: decrease of alcohol uptake
[2]; HARS scale (HAMILTON anxiety scale), cyamemazine group versus bromazepam group
  maximum amplitude of the anxiety rebound: no significant difference
[2]; RICKELS withdrawal scale, cyamemazine group versus bromazepam group
  frequency of occurrence of a withdrawal syndrome: no significant difference
[2]; ZUNG anxiety scale, cyamemazine group versus bromazepam group
  maximum amplitude of the anxiety rebound: no significant difference
[2]
  patients in whom the withdrawal is still a success: 90%
  patients in whom the treatment is successful: 95%
[2]; cyamemazine group versus bromazepam group
  percentage of patients exhibiting an anxiety rebound: no significant difference

## O=C1CN=C(c2ccccn2)c2cc(Br)ccc2N1 [bromazepam]
[2]
  patients in whom the withdrawal is still a success: 75%
  patients in whom the treatment is successful: 85%
